We go through 20 compounds from patent US5278176A (Abbott Laboratories, priority 1992, dated 1994).

Counter-ions that a name gives are not always drawn.

Data set [1] deals with insecticidal activity. The conditions noted are these: U.S. Pat. No. 4,093,620; cited from earlier work.
In data set [2] the target is Neuronal Nicotinic Receptors. As to the kind of experiment: Binding of [^3 H]-methylcarbamylcholine ([^3 H]-MCC) to neuronal nicotinic receptors (Table 1). Details: species or system rat. On the procedure: Protocols for Determination of Nicotinic Receptor Binding Potencies of Agonists
Binding of [^3 H]-methylcarbamylcholine ([^3 H]-MCC) to nicotinic receptor was accomplished using crude synaptic membrane preparations from whole rat brain (Snyder and Enna, Brain Research, 1975, 100:81). Washed membranes were stored at -80° C. prior to use. Frozen aliquots were slowly thawed and resuspended in 20 volumes of buffer (containing: 120 mM NaCl, 5 mM KCl, 2 mM MgCl2, 2 mM CaCl2 and 50 mM Tris-Cl, pH 7.4 @4° C.). After centrifuging at 20,000 g for 15 minutes, the pellets were resuspended in 30 volumes of buffer. Homogenate (containing 125-150 μg protein) was added to triplicate tubes containing concentrations of test compound and [^3 H]-MCC (3 nM) in a final volume of 500 μL. Samples were incubated for 60 minutes at 4° C., then rapidly filtered through Whatman GF/B filters presoaked in 0.5% polyethylimine using 3×4 mL of ice-cold buffer. The filters are counted in 4 mL of Ecolume® (ICN). […] Alternately, data were expressed as a percentage of the total specific binding.

The subject of data set [3] is anxiolytic activity (time in open arms). The experiment in a line: Mouse Elevated Plus-Maze Studies. The data set is classed as in vivo, CD1 mice. On the procedure:
FIG. 4 is a graphical representation of the effects of the compound of Example 4 (0.003-0.3 mg/kg) on the performance of CD1 mice in the Elevated-Plus Maze Study expressed as median time (seconds) spent on the open arms of the maze.
The mouse elevated plus-maze is a conflict test that probes anxiolytic activity of test compounds (Lister, Psychopharmacology, 1987, 92:180). It is based on the fact that exposure of mice to an elevated open arm leads to an avoidance response considerably stronger than that evoked by exposure to an enclosed arm.
The apparatus required to perform this test is made of plywood and consists of two open arms (17×8 cm) and two enclosed arms (17×8×15 cm) extending from a central platform (8×8 cm). It is mounted on a plywood base rising 39 cm above the floor. Mice are released on the central platform and the time spent in the open and enclosed arms is recorded during a 5 minute test period.
The compound of Example 4 (0.62-6.2 μmol/kg, IP) was administered to CD1 mice 15 minutes before the test.

The subject of data set [4] is retention of the avoidance response. As to the kind of experiment: Inhibitory Avoidance Studies. The conditions noted are these: 0.06-6.2 μmol/kg IP, 15 min before training; FIG. 2. The data set is classed as in vivo, CD1 mice. On the procedure:
FIG. 2 is a graphical representation (bar graph) of the effects of the compound of Example 8 (0.001-1.0 mg/kg) on the performance of CD1 mice in Inhibitory Avoidance Studies expressed as median step-through latency time (seconds).
The inhibitory (or sometimes called passive) avoidance (IA) test is a well accepted animal model of learning/memory used to assess the activity of novel muscarinic agonists to enhance cognitive function (Wanibuchi et al., Eur. J. Pharmacol., 1990, 187:479). Animals are placed in the illuminated (12×14×11 cm) portion of a two-chambered box, from which they enter through a guillotine door to the larger (24×13.5×12 cm) dark compartment of the box. Entry to the dark compartment is accompanied by a mild (0.5 mA), brief (2 seconds) footshock. Initial latencies to cross are recorded, with an imposed 60 second ceiling. Following a 72 hour retention interval, animals are returned to the illuminated chamber, and latency to return to the dark compartment is again recorded, with a ceiling of 180 seconds. No footshock is administered on the test day.
Twelve animals were used in each group.

The subject of data set [5] is cholinergic receptors located in the heart. The settings on record: cited from earlier work.
Data set [6] deals with cortical receptors. The conditions noted are these: cited from earlier work.
The conditions of data set [7]: background statement; cited from earlier work.
Data set [8] deals with parietotemporal cortex. The settings on record: parietotemporal cortex of humans; cited from earlier work.
Data set [9] has as its system receptors. The conditions noted are these: chronic nicotine administration; cited from earlier work.
The test system of data set [10] is withdrawal symptoms. The settings on record: double-blind studies; cited from earlier work.
Data set [11] relates to cognitive function. The conditions noted are these: acutely and chronically administered; preserved in aged animals; cited from earlier work.
The test system of data set [12] is heart. The conditions noted are these: in vivo; cited from earlier work.
Data set [13] deals with anger, irritability, frustration, tension, anxiety. The conditions noted are these: cited from earlier work.
[14] abbreviates: [^3 H]-MCC (3 nM), whole rat brain membranes, 60 min at 4° C., Cheng-Prusoff from IC50.

For `CN1C(C#N)CCC1c1cccnc1` (stereo not drawn) [5'-cyanonicotine], in data set [1], the insecticidal activity result is recorded as “insecticidal activity”. Take `CN1C[C@H](O)CC1c1cccnc1` (stereo partly drawn) [Example 1, 4'-(R)-Hydroxynicotine oxalate]: the affinity in data set [2] (setting [14]) corresponds to a Ki of 29 nM. Still for that read-out and setting: to `CO[C@@H]1CC(c2cccnc2)N(C)C1` (stereo partly drawn) [Example 2, 4'-(R)-Methoxynicotine oxalate] belongs 25 nM; to `CN1C[C@@H](F)CC1c1cccnc1` (stereo partly drawn) [Example 3, 4'-(S)-Fluoronicotine dioxalate], 35 nM. Regarding `C[C@@H]1CC(c2cccnc2)N(C)C1.O=C(O)C(=O)O.O=C(O)C(=O)O` (stereo partly drawn) [Example 4, 4'-(R)-Methylnicotine dioxalate], the affinity in data set [2] (setting [14]) corresponds to a Ki of 4.2 nM. Further, in data set [3] (0.62-6.2 μmol/kg IP, 15 min before test, p<0.05 vs control, FIG. 4), the “anxiolytic response (time in open arms)” value is listed as “clear anxiolytic response”. Also, the “anxiolytic effect compared with (-)nicotine” value in data set [3] (FIG. 4) is listed as “anxiolytic effect similar to (-)nicotine”. Turning to `CN1C[C@@H](Cc2ccccc2)CC1c1cccnc1` (stereo partly drawn) [Example 5, 4'-(S)-Benzylnicotine dioxalate], in data set [2] (setting [14]), the Ki was determined as 135 nM. That is a sub-micromolar value. In [2] (setting [14]), `CC[C@H]1CC(c2cccnc2)N(C)C1` (stereo partly drawn) [Example 6, 4'-(S)-Ethylnicotine dioxalate] yielded an inhibitory constant (Ki) of 53 nM. Take `CN1C[C@H](CF)CC1c1cccnc1.O=C(O)C(=O)O` (stereo partly drawn) [Example 8, 4'-(R)-Fluoromethylnicotine oxalate]: in [2] (setting [14]), the affinity, expressed as Ki, was 10 nM. Also, in data set [4], the “facilitation of retention of the avoidance response” value is recorded as “significantly facilitated the retention of the avoidance response”.

For `CN1CCC(CF)C1c1cccnc1` (stereo not drawn) [Example 9, 3'-Fluoromethylnicotine oxalate], in data set [2] (setting [14]), the inhibition constant (Ki) amounted to 106 nM. This lies in the sub-micromolar range. Still for that read-out and setting: to `CC1CCN(C)C1c1cccnc1` (stereo not drawn) [Example 10, 3'-methylnicotine dioxalate] belongs 23 nM; to `CN1C[C@@H](C#N)CC1c1cccnc1` (stereo partly drawn) [Example 11, 4'-(S)-Cyanonicotine dioxalate], 7 nM. The same measure, in the same setting: to `CC(=O)O[C@@H]1CC(c2cccnc2)N(C)C1` (stereo partly drawn) [Example 12, 4'-(R)-Acetyloxynicotine oxalate] belongs 162 nM; to `CC1CN(C)C(c2cccnc2)C1C` (stereo not drawn) [Example 13, 3',4'-Dimethylnicotine oxalate], 105 nM. Still for that read-out and setting: under `CN1C[C@@H](CC#N)CC1c1cccnc1` (stereo partly drawn) [Example 16, 4'-(R)-Cyanomethylnicotine oxalate] stands 53 nM; under `CN1C[C@H](OS(C)(=O)=O)CC1c1cccnc1` (stereo partly drawn) [Example 19, 4'-(R)-Methanesulfonyoxynicotine oxalate], 276 nM. For the compound `CCN1C(=O)CC2(CCN(C)CC2)C1=O` [RS-86], in [5], the “agonist efficacy at cardiac receptors” value was “full agonist at cardiac receptors”. In addition, the “agonist efficacy at cortical receptors” value in data set [6] is listed as “only a partial agonist at cortical receptors”. The potency and selectivity result in data set [7] was “poor potency and lack of selectivity”. For `COC(=O)C1=CCCN(C)C1` [arecoline], the Ki in data set [2] (arecoline comparator in text, unit inferred) turned out to be 59 nM. Also, in data set [7], the pharmacokinetics result is “unfavorable pharmacokinetics”. On to `C[N+](C)(C)CCOC(N)=O` [carbachol], for which the CNS penetration result in data set [7] is reported as “poor CNS penetration”. `CNC1(C)C2CCC(C2)C1(C)C` (stereo not drawn) [mecamylamine]: the resting cortical perfusion entry in data set [8] is given as “reduces resting cortical perfusion”. As to `CN1CCC[C@H]1c1cccnc1` [nicotine], the Ki in data set [2] (setting [14]) was determined as 1 nM. In addition, the “time spent in open arms of the maze” value in [3] ((-)nicotine 0.1 and 0.3 mmol/kg, p<0.05 vs saline, 5 min test) is recorded as “significant increase in the time spent by the mice in the open arms of the maze”. For the same compound, in data set [9], the “effect on receptor affinity” value is recorded as “without affecting affinity” and the “up-regulation of number of receptors” value is reported as 50-100%. Moreover, in [7], the oral bioavailability entry is reported as “poor oral bioavailability” and the pharmacokinetics result is reported as “unfavorable pharmacokinetics”. Further, the “suppression/prevention of withdrawal signs and symptoms vs placebo” value in data set [10] is “far superior to placebo in suppressing or preventing the appearance of many of the signs and symptoms of withdrawal”. Further, the cognitive function entry in data set [11] was “enhances cognitive function in rats”. The “stimulant effects on the heart” value in [12] is “increasing cardiac workload and oxygen demand”. In addition, the anxiolytic properties result in [13] (Pomerleau et al. 1984) is given as “anxiolytic properties”. For the same compound, in data set [13] (U.S. Pat. No. 3,879,794, without general response depression, drowsiness or sedation), the “effect on anger, irritability, frustration, tension” value is “effective in reducing anger, irritability, frustration and feelings of tension”.

For orientation: Ki means a dissociation constant, usually derived from enzyme kinetics or from competition with a known ligand. A high value points to lower affinity.
